Reference: patent US20260374756A1, “HETEROCYCLIC COMPOUNDS AS INHIBITORS OF MONOACYLGLYCEROL LIPASE (MAGL)” (Hoffmann-La Roche Inc., priority 2022, published 2026)

Each compound was assayed against T1, hMAGL (Homo sapiens, UniProt Q99685) (assay: 2-AG assay: MAGL inhibition, hydrolysis of 2-arachidonoylglycerol to arachidonic acid followed by mass spectrometry).
T1 sequence (Q99685 1-303): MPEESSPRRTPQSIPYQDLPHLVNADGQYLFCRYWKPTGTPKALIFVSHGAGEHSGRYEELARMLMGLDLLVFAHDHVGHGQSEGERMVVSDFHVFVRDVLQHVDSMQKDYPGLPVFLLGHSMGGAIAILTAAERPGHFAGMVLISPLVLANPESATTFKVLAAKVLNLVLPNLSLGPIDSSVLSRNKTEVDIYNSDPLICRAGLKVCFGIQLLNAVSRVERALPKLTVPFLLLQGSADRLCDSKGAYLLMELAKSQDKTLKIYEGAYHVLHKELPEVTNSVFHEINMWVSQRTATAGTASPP
Type: biochemical
Method in brief: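 Read-out is LC-MS/MS of arachidonic acid released from 2-arachidonoylglycerol (8 μM final), normalised to d8-arachidonic acid internal standard after acetonitrile quench. Enzyme […] and compound were pre-mixed 15 min, then reacted 30 min, both at RT, in Tris/EDTA buffer with 0.01% Tween-20 and 2.5% DMSO.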

| SMILES | IC50 |
| --- | --- |
| Cn1ncc(C(F)(F)F)c1CC1CC2(C1)CN(C(=O)N1CC3(CC(n4cnc(C5(O)CC5)n4)C3)C1)C2 [Example 3] | 2.21 nM |
| O=C(N1CC2(CC(n3cnc(C4CC4)n3)C2)C1)N1CC2(CN(Cc3cc(C4CCC4)[nH]n3)C2)C1 [Example 274, [6-[(5-cyclobutyl-1H-pyrazol-3-yl)methyl]-2,6-diazaspiro[3.3]heptan-2-yl]-[6-(3-cyclopropyl-1,2,4-triazol-1-yl)-2-azaspiro[3.3]heptan-2-yl]methanone] | 5.29 nM |
| O=C(N1CC2(CC(n3cnc(C(F)(F)F)n3)C2)C1)N1CC2(CN(Cc3conc3C(F)(F)F)C2)C1 [Example 218, [6-[[3-(trifluoromethyl)isoxazol-4-yl]methyl]-2,6-diazaspiro[3.3]heptan-2-yl]-[6-[3-(trifluoromethyl)-1,2,4-triazol-1-yl]-2-azaspiro[3.3]heptan-2-yl]methanone] | 31.9 nM |
| CC(C)(C)n1ccnc1CN1CC2(C1)CN(C(=O)N1CC3(CC(n4cnc(C(F)(F)F)n4)C3)C1)C2 [Example 319, [6-[(1-tert-butylimidazol-2-yl)methyl]-2,6-diazaspiro[3.3]heptan-2-yl]-[6-[3-(trifluoromethyl)-1,2,4-triazol-1-yl]-2-azaspiro[3.3]heptan-2-yl]methanone] | 58.3 nM |
| O=C(N1CC2(CC(n3cnc(C4CC4)n3)C2)C1)N1CC2(CN(Cc3cnn(C(F)(F)F)c3)C2)C1 [Example 182, [6-(3-cyclopropyl-1,2,4-triazol-1-yl)-2-azaspiro[3.3]heptan-2-yl]-[6-[[1-(trifluoromethyl)pyrazol-4-yl]methyl]-2,6-diazaspiro[3.3]heptan-2-yl]methanone] | 33.9 nM |
| O=C(N1CC2(CC(Cn3cnc(C(F)(F)F)n3)C2)C1)N1CC2(CC(c3cc(C4CC4)n[nH]3)C2)C1 [Example 126, [6-(3-cyclopropyl-1H-pyrazol-5-yl)-2-azaspiro[3.3]heptan-2-yl]-[6-[[3-(trifluoromethyl)-1,2,4-triazol-1-yl]methyl]-2-azaspiro[3.3]heptan-2-yl]methanone] | 0.78 nM |
| O=C(N1CC2(CC(n3cnc(C4CC4)n3)C2)C1)N1CC2(CN(Cc3nc(C(F)(F)F)no3)C2)C1 [Example 173, [6-(3-cyclopropyl-1,2,4-triazol-1-yl)-2-azaspiro[3.3]heptan-2-yl]-[6-[[3-(trifluoromethyl)-1,2,4-oxadiazol-5-yl]methyl]-2,6-diazaspiro[3.3]heptan-2-yl]methanone] | 11.9 nM |
| O=C(N1CC2(CCN(Cc3cc(C(F)(F)F)[nH]n3)CC2)C1)N1CC2(CC(n3cnc(C(F)(F)F)n3)C2)C1 [Example 28] | 20.5 nM |
| Cn1c(CN2CC3(C2)CN(C(=O)N2CC4(CC(n5cnc(C6CC6)n5)C4)C2)C3)nnc1C(F)(F)F [Example 322, [6-(3-cyclopropyl-1,2,4-triazol-1-yl)-2-azaspiro[3.3]heptan-2-yl]-[6-[[4-methyl-5-(trifluoromethyl)-1,2,4-triazol-3-yl]methyl]-2,6-diazaspiro[3.3]heptan-2-yl]methanone] | 46.7 nM |
| O=C(N1CC2(CC(n3cnc(C(F)(F)F)n3)C2)C1)N1CC2(CN(Cc3nc(CC(F)(F)F)no3)C2)C1 [Example 206] | 149 nM |
| O=C(N1CC2(CC(Cn3ncc(C(F)(F)F)n3)C2)C1)N1CC2(CC(n3cnc(C4(O)CC4)n3)C2)C1 [Example 292, [6-[3-(1-hydroxycyclopropyl)-1,2,4-triazol-1-yl]-2-azaspiro[3.3]heptan-2-yl]-[6-[[4-(trifluoromethyl)triazol-2-yl]methyl]-2-azaspiro[3.3]heptan-2-yl]methanone] | 4.31 nM |
| O=C(N1CC2(CC(n3cnc(C4CC4)n3)C2)C1)N1CC2(CN(Cc3coc(C(F)(F)F)n3)C2)C1 [Example 214, [6-(3-cyclopropyl-1,2,4-triazol-1-yl)-2-azaspiro[3.3]heptan-2-yl]-[6-[[2-(trifluoromethyl)oxazol-4-yl]methyl]-2,6-diazaspiro[3.3]heptan-2-yl]methanone] | 28.5 nM |
| Cc1cc(C(F)(F)F)nn1CC1CC2(C1)CN(C(=O)N1CC3(CC(n4cnc(C5(O)CC5)n4)C3)C1)C2 [Example 70] | 131 nM |
| Cn1nc(CN2CC3(C2)CN(C(=O)N2CC4(CC(c5cc(C6CC6)n[nH]5)C4)C2)C3)cc1C(F)(F)F [Example 160] | 2.08 nM |
| O=C(N1CC2(CC(Cc3nc(C(F)(F)F)ns3)C2)C1)N1CC2(CC(n3cnc(C(F)(F)F)n3)C2)C1 [Example 15, [6-[[3-(trifluoromethyl)-1,2,4-thiadiazol-5-yl]methyl]-2-azaspiro[3.3]heptan-2-yl]-[6-[3-(trifluoromethyl)-1,2,4-triazol-1-yl]-2-azaspiro[3.3]heptan-2-yl]methanone] | 2.25 nM |
| O=C(N1CC2(CC(Cn3cnc(C(F)(F)F)n3)C2)C1)N1CC2(CC(n3cnc(C4(O)CC4)n3)C2)C1 [Example 128, [6-[3-(1-hydroxycyclopropyl)-1,2,4-triazol-1-yl]-2-azaspiro[3.3]heptan-2-yl]-[6-[[3-(trifluoromethyl)-1,2,4-triazol-1-yl]methyl]-2-azaspiro[3.3]heptan-2-yl]methanone] | 9.98 nM |
| O=C(N1CC2(CC(n3cnc(C(F)(F)F)n3)C2)C1)N1CC2(CN(Cc3nnnn3CC(F)(F)F)C2)C1 [Example 197, [6-[[1-(2,2,2-trifluoroethyl)tetrazol-5-yl]methyl]-2,6-diazaspiro[3.3]heptan-2-yl]-[6-[3-(trifluoromethyl)-1,2,4-triazol-1-yl]-2-azaspiro[3.3]heptan-2-yl]methanone] | 445 nM |

The remaining compounds from weak to strong by IC50, led by results:

| IC50 | SMILES |
| --- | --- |
| 114 nM | O=C(N1CC2(CCC(Cc3nnc(C(F)(F)F)[nH]3)CC2)C1)N1CC2(CC(n3cnc(C4(O)CC4)n3)C2)C1 [Example 35, [6-[3-(1-hydroxycyclopropyl)-1,2,4-triazol-1-yl]-2-azaspiro[3.3]heptan-2-yl]-[7-[[5-(trifluoromethyl)-4H-1,2,4-triazol-3-yl]methyl]-2-azaspiro[3.5]nonan-2-yl]methanone] |
| 45.6 nM | CCn1nc(C(F)(F)F)cc1CN1CC2(C1)CN(C(=O)N1CC3(CC(n4cnc(C5(O)CC5)n4)C3)C1)C2 [Example 168, [6-[[2-ethyl-5-(trifluoromethyl)pyrazol-3-yl]methyl]-2,6-diazaspiro[3.3]heptan-2-yl]-[6-[3-(1-hydroxycyclopropyl)-1,2,4-triazol-1-yl]-2-azaspiro[3.3]heptan-2-yl]methanone] |
| 23.1 nM | O=C(N1CC2(CC(n3cnc(C(F)(F)F)n3)C2)C1)N1CC2(CN(Cc3nc(C4CC4)ns3)C2)C1 [Example 43, [6-[(3-cyclopropyl-1,2,4-thiadiazol-5-yl)methyl]-2,6-diazaspiro[3.3]heptan-2-yl]-[6-[3-(trifluoromethyl)-1,2,4-triazol-1-yl]-2-azaspiro[3.3]heptan-2-yl]methanone] |
| 11.8 nM | Cc1sc(CN2CC3(C2)CN(C(=O)N2CC4(CC(n5cnc(C6CC6)n5)C4)C2)C3)nc1C(F)(F)F [Example 55, [6-(3-cyclopropyl-1,2,4-triazol-1-yl)-2-azaspiro[3.3]heptan-2-yl]-[6-[[5-methyl-4-(trifluoromethyl)thiazol-2-yl]methyl]-2,6-diazaspiro[3.3]heptan-2-yl]methanone] |
| 8.67 nM | O=C(N1CC2(CC(Cn3cc(C(F)(F)F)cn3)C2)C1)N1CC2(CC(n3cnc(C4(O)CC4)n3)C2)C1 [Example 12] |
| 8.61 nM | O=C(N1CC2(CCN(Cc3cc(C(F)(F)F)on3)CC2)C1)N1CC2(CC(n3cnc(C4CC4)n3)C2)C1 [Example 80, [6-(3-cyclopropyl-1,2,4-triazol-1-yl)-2-azaspiro[3.3]heptan-2-yl]-[7-[[5-(trifluoromethyl)isoxazol-3-yl]methyl]-2,7-diazaspiro[3.5]nonan-2-yl]methanone] |
| 4.12 nM | CC(C)(C)c1coc(CN2CC3(C2)CN(C(=O)N2CC4(CC(n5cnc(C(F)(F)F)n5)C4)C2)C3)n1 [Example 97, [6-[(4-tert-butyloxazol-2-yl)methyl]-2,6-diazaspiro[3.3]heptan-2-yl]-[6-[3-(trifluoromethyl)-1,2,4-triazol-1-yl]-2-azaspiro[3.3]heptan-2-yl]methanone] |
| 4.09 nM | Cc1cc(C(F)(F)F)nn1CC1CC2(C1)CN(C(=O)N1CC3(CC(n4cnc(C5CC5)n4)C3)C1)C2 [Example 69, [6-(3-cyclopropyl-1,2,4-triazol-1-yl)-2-azaspiro[3.3]heptan-2-yl]-[6-[[5-methyl-3-(trifluoromethyl)pyrazol-1-yl]methyl]-2-azaspiro[3.3]heptan-2-yl]methanone] |
| 2.79 nM | CC(C)(C)c1conc1CN1CC2(C1)CN(C(=O)N1CC3(CC(n4cnc(C5CC5)n4)C3)C1)C2 [Example 256, [6-[(4-tert-butylisoxazol-3-yl)methyl]-2,6-diazaspiro[3.3]heptan-2-yl]-[6-(3-cyclopropyl-1,2,4-triazol-1-yl)-2-azaspiro[3.3]heptan-2-yl]methanone] |
| 2 nM | CC(C)(C)c1noc(CN2CC3(C2)CN(C(=O)N2CC4(CC(n5cnc(C6CC6)n5)C4)C2)C3)n1 [Example 266, [6-[(3-tert-butyl-1,2,4-oxadiazol-5-yl)methyl]-2,6-diazaspiro[3.3]heptan-2-yl]-[6-(3-cyclopropyl-1,2,4-triazol-1-yl)-2-azaspiro[3.3]heptan-2-yl]methanone] |
| 0.11 nM | O=C(N1CC2(CC(Cn3nccc3C3CC3)C2)C1)N1CC2(CC(n3cnc(C4CC4)n3)C2)C1 [Example 355, [6-[(5-cyclopropylpyrazol-1-yl)methyl]-2-azaspiro[3.3]heptan-2-yl]-[6-(3-cyclopropyl-1,2,4-triazol-1-yl)-2-azaspiro[3.3]heptan-2-yl]methanone] |
